Results reported in patent publication US10377763B2, “Morphinan derivative and medical usage thereof” (UNIVERSITY OF TSUKUBA, priority 2015, dated 2019).
Where “and” joins values, the source holds several entries; their conditions need not be identical. Equal entries are not always repeated.

Tests used:
[1] = tested on: male ICR mice with morphine physical dependence; experiment: Evaluation of the prophylactic effect on drug dependence (naloxone-induced withdrawal syndrome in morphine-dependent mice); assay type: in vivo; conditions: 10 mg/kg repeatedly with morphine Day 1-5, naloxone 3 mg/kg s.c.
Description: Increasing doses of morphine hydrochloride dissolved in saline were administered subcutaneously to 7-week-old male ICR mice twice daily (dosing interval: about 12 hours) for four days (dose: Day 1, 8 mg/kg followed by 15 mg/kg; Day 2, 20 mg/kg followed by 25 mg/kg; Day 3, 30 mg/kg followed by 35 mg/kg; Day 4, 40 mg/kg followed by 45 mg/kg). On Day 1 to Day 4, the mice were administered intraperitoneally with the compound of Example 45 (Compound 26) at 10 mg/kg or saline, the solvent of the compound, 30 minutes prior to every first administration of morphine hydrochloride. On Day 5, the mice were administered subcutaneously with the compound of Example 45 (Compound 26) at 10 mg/kg or saline, and 30 minutes later administered subcutaneously with morphine hydrochloride at 45 mg/kg as the final dose. Two hours after the final administration of morphine hydrochloride, the mice were administered subcutaneously with naloxone hydrochloride at 3 mg/kg; symptoms of withdrawal syndrome (jumping, body shake, ptosis, forepaw tremor, rearing, body weight loss, and diarrhea) which appeared 60 minutes after administration of naloxone hydrochloride were observed. Body weight was measured before and every 15 minutes after naloxone hydrochloride administration. Moreover, diarrhea was graded according to a three-point scoring system based on the appearance of feces: normal feces (Normal), loose feces (Slightly), and liquid feces or liquid diarrhea (Severe). The other symptoms of withdrawal syndrome were evaluated based on the presence or absence of their manifestation. Statistical analysis was performed using chi square test and two-way analysis of variance and setting the significance level at p<0.05.

human OX1R = human OX1R (Homo sapiens (Human), UniProt O43613); experiment: Measurement of antagonistic activity against orexin receptors (intracellular calcium, CHOOX1R cells); assay type: cell-based
Description: (§1) The Chinese hamster ovary (CHO) cell lines CHOOX1R and CHOOX2R were established by modifying CHO cells to constantly express the NFAT-luciferase gene and either the human OX1R or human OX2R gene. Those cells were plated at 10,000 cells/well in 96-well multiplates with DMEM (manufactured by Sigma-Aldrich Co. LLC) supplemented with 5% FBS (manufactured by Thermo Scientific Inc.) and incubated at 37° C. and 5% CO2 for 48 hours. After removal of the medium, 100 μL of an assay buffer (20 mM HEPES (manufactured by Sigma-Aldrich Co. LLC), Hank's balanced salt solution (manufactured by Gibco), 0.1% BSA (manufactured by Sigma-Aldrich Co. LLC), 2.5 mM probenecid acid (manufactured by Wako Pure Chemical Industries, Ltd.), pH 7.4) containing 5 μM Fura-2AM (manufactured by Cayman Chemical Co.) was added to each well, and incubated at 37° C. and 5% CO2 for 60 minutes. After removal of the buffer containing Fura-2AM, 75 μL of the assay buffer was added to each well. Then, […] of the assay buffer containing a test compound at various concentrations and OX-A (manufactured by Peptide Institute, Inc.) was added to start the reaction. The change in intracellular calcium ion concentration induced by the reaction was evaluated by the ratio of fluorescent intensities, which were measured at a wavelength of 510 nm based on the two wavelength excitation approach using FDSS 7000 (manufactured by Hamamatsu Photonics K.K.) with fluorescence excitation at 340 nm and 380 nm. A concentration-response curve on the antagonistic activity was plotted from the values of maximal fluorescent intensity ratio determined when various concentrations of a test compound were added in the presence of […] of OX-A, where a value of maximal fluorescent intensity ratio determined by adding 300 pM of OX-A alone corresponds to 100% and a value of maximal fluorescent intensity ratio determined by adding the assay buffer alone corresponds to 0%. Based on the resulting non-linear regression curve, the 50% maximal inhibitory concentration (IC50) was calculated. Each test compound was dissolved in DMSO to a concentration of 10 mM (the final concentration of DMSO was 1%), and then diluted with the assay buffer to give a final concentration of 3.0×10^−10 M to 1.0×10^−5 M (a common ratio of 3), while OX-A was diluted to a final concentration of 300 pM. The experiment was performed in quadruplicate plates, and the results of the four independent measurements were averaged to give the value of each reaction, and then the IC50 of a sample was calculated. If the sample number was 2 or more, the averaged IC50 was used.

human OX2R = human OX2R (Homo sapiens (Human), UniProt O43614); experiment: Measurement of antagonistic activity against orexin receptors (intracellular calcium, CHOOX2R cells); assay type: cell-based
Description: as §1

[2] = tested on: male ICR mice with morphine physical dependence; experiment: Evaluation of the therapeutic effect on drug dependence (naloxone-induced withdrawal syndrome in morphine-dependent mice); assay type: in vivo; conditions: 10 mg/kg i.p. 30 minutes prior to naloxone 3 mg/kg s.c., after repeated morphine
Description: Increasing doses of morphine hydrochloride dissolved in saline were administered subcutaneously to 7-week-old male ICR mice twice daily (dosing interval: about 12 hours) for four days (dose: Day 1, 8 mg/kg followed by 15 mg/kg; Day 2, 20 mg/kg followed by 25 mg/kg; Day 3, 30 mg/kg followed by 35 mg/kg; Day 4, 40 mg/kg followed by 45 mg/kg). On Day 5, the mice were administered subcutaneously with morphine hydrochloride at 45 mg/kg as the final dose. Two hours after the final administration of morphine hydrochloride, the mice were administered subcutaneously with naloxone hydrochloride at 3 mg/kg. The mice were administered intraperitoneally with the compound of Example 45 (Compound 26) at 10 mg/kg or saline, the solvent of the compound, 30 minutes prior to the administration of naloxone hydrochloride. Symptoms of withdrawal syndrome (jumping, body shake, ptosis, forepaw tremor, rearing, body weight loss, and diarrhea) which appeared 60 minutes after the last dose of naloxone hydrochloride were observed. Body weight was measured before and every 15 minutes after naloxone hydrochloride administration. Moreover, diarrhea was graded according to a three-point scoring system based on the appearance of feces: normal feces, loose feces, and liquid feces or liquid diarrhea. The other symptoms of withdrawal syndrome were evaluated based on the presence or absence of their manifestation. Statistical analysis was performed using chi square test and two-way analysis of variance and setting the significance level at p<0.05.

Chain of human OX1R (O43613 whole entry): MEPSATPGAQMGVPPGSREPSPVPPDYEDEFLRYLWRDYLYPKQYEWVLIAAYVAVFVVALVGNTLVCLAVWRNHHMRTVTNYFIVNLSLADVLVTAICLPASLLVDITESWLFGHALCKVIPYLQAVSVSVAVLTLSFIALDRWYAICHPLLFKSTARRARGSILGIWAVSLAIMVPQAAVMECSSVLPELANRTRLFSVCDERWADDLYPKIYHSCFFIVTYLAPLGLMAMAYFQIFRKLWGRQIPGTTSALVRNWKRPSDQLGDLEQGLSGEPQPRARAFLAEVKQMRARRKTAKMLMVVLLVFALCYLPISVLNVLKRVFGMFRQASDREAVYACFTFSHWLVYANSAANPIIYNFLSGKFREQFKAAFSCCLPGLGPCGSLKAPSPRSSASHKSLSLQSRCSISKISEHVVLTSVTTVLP
Chain of human OX2R (O43614 whole entry): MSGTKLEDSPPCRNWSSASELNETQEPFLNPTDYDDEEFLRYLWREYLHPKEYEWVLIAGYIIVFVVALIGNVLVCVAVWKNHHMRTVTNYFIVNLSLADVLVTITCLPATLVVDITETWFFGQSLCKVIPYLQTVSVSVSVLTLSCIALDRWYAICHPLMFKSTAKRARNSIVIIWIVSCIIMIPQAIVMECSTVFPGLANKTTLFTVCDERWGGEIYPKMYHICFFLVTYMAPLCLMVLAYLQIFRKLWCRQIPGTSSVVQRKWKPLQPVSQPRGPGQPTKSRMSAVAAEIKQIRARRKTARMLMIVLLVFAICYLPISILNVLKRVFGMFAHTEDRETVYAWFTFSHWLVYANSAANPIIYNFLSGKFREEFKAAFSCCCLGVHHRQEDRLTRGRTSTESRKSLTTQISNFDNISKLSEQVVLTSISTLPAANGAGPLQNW

In the case of COc1ccc2c3c1O[C@H]1[C@H](N(C)C(=O)/C=C/c4ccccn4)CC[C@@]4(O)[C@@H](C2)N(S(=O)(=O)c2ccccc2N(C)C)CC[C@]314 [Example 45, (E)-N-[(4R,4aS,7R,7aR,12bS)-3-{[2-(dimethylamino)phenyl]sulfonyl}-4a-hydroxy-9-methoxy-2,3,4,4a,5,6,7,7a-octahydro-1H-4,12-methanobenzofuro[3,2-e]isoquinolin-7-yl]-N-methyl-3-(pyridin-2-yl)acrylamide], the “Body shake: number of animals with withdrawal syndrome/total number of animals” value [1] is reported as 6/8, the “Diarrhea score Liquid feces or liquid diarrhea (number of corresponding animals/total number of animals)” value [1] is reported as 2/8 and the “Diarrhea score Loose feces (number of corresponding animals/total number of animals)” value [1] is reported as 4/8. The “Diarrhea score Normal feces (number of corresponding animals/total number of animals)” value [1] was 2/8, the “Forepaw tremor: number of animals with withdrawal syndrome/total number of animals” value [1] was 6/8 and the “Jumping: number of animals with withdrawal syndrome/total number of animals” value [1] was “statistically significantly suppressed and 1/8*”. For the same molecule, the “Ptosis: number of animals with withdrawal syndrome/total number of animals” value [1] was “tendency to suppress and 4/8”, the “Rearing: number of animals with withdrawal syndrome/total number of animals” value [1] was “tendency to suppress and 5/8” and the “diarrhea (withdrawal syndrome, in words)” value [1] was “statistically significantly suppressed”. For the same molecule, the “body weight loss (withdrawal syndrome)” value ([1]; FIG. 1) was “statistically significantly suppressed”, the IC50 (human OX1R) was 3.61 nM and the “antagonistic activity against human OX1 receptor (in words)” value (human OX1R; summary of Table 6) was “potent and selective antagonistic activity”. For the same molecule, the IC50 (human OX2R) was over 10000 nM, the “Body shake: number of animals with withdrawal syndrome/total number of animals” value [2] was 7/13 and the “Diarrhea score Liquid feces or liquid diarrhea (number of corresponding animals/total number of animals)” value [2] was 3/13. For the same molecule, the “Diarrhea score Loose feces (number of corresponding animals/total number of animals)” value [2] was 8/13, the “Diarrhea score Normal feces (number of corresponding animals/total number of animals)” value [2] was 2/13 and the “Forepaw tremor: number of animals with withdrawal syndrome/total number of animals” value [2] was 11/13. For the same molecule, the “Jumping: number of animals with withdrawal syndrome/total number of animals” value [2] was “statistically significantly suppressed and 2/13**”, the “Ptosis: number of animals with withdrawal syndrome/total number of animals” value [2] was “tendency to suppress and 3/13” and the “Rearing: number of animals with withdrawal syndrome/total number of animals” value [2] was 11/13. For the same molecule, the “diarrhea (withdrawal syndrome, in words)” value [2] was “statistically significantly suppressed” and the “body weight loss (withdrawal syndrome)” value ([2]; FIG. 2) was “statistically significantly suppressed”.
